Experimental findings from ChEMBL document CHEMBL1201862, “PubChem BioAssay data set” (2004) are described below.

Each structure is given as a SMILES string.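 A five-concentration, 48-hour dose response in 96-well plates underlies each endpoint, interpolated linearly between surrounding concentrations. GI50 = concentration required for 50% inhibition of growth.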 Activity calls are given as the source filed them. Rule as the data show it: active = GI50 up to about 1.1 µM and inactive = higher.

Usually GI50 stands for the concentration that inhibits growth by half.

Test systems include HOP-62; OVCAR-4; OVCAR-5; HT-29; CCRF-CEM; MCF7; MOLT-4; A549; SNB-19; UACC-257; M14; T47D; SK-OV-3; HCT-116; SF-295; NCI/ADR-RES; SK-MEL-5; RXF 393; SW-620; NCI-H522.
Holding throughout (assay): DTP human tumour cell line panel, 48 h

Consider `O=Cc1ccc(Oc2c3ccccc3nc3ccccc23)cc1`, for which the GI50 with HOP-62 is 14.4 µM (inactive); in the test on OVCAR-4, 4.63 µM (inactive); in the test on OVCAR-5, 4.29 µM (inactive); in the test on HT-29, 2.07 µM (inactive); with CCRF-CEM, 2.71 µM (inactive); in the test on MCF7 it was 4.42 µM (inactive). In addition, the 50% growth inhibitory concentration (GI50) is < 0.01 µM (active) in the test with MOLT-4; 18.8 µM (inactive) in the test on A549; 16.4 µM (inactive) in the test on SNB-19; 0.346 µM (active) with UACC-257; 3.44 µM (inactive) with M14; 3.66 µM (inactive) in the test on T47D. The GI50 is 4.63 µM (inactive) in the test with SK-OV-3; 2.14 µM (inactive) in the test with HCT-116; 19.6 µM (inactive) in the test on SF-295; 10.2 µM (inactive) in the test with NCI/ADR-RES; 11.5 µM (inactive) in the test on SK-MEL-5; 7.98 µM (inactive) in the test on RXF 393.

For the compound `Cc1cnc2sn(-c3ccc(Br)cc3)c(=O)c2c1`, the GI50 was 27.7 µM (inactive) in the test with HOP-62; 26.2 µM (inactive) in the test with OVCAR-4; 28.6 µM (inactive) in the test with SW-620; 44.2 µM (inactive) with OVCAR-5; 28.9 µM (inactive) in the test with HT-29; 24.4 µM (inactive) in the test on CCRF-CEM. Besides, the GI50 in the test with MCF7 is 30.3 µM (inactive); with MOLT-4, 30.4 µM (inactive); in the test on A549, 36.6 µM (inactive); with SNB-19, 40.9 µM (inactive); with UACC-257, 45.2 µM (inactive); in the test on M14, 41.2 µM (inactive). For the same compound, the GI50 was 13.4 µM (inactive) in the test on T47D; 41.6 µM (inactive) with SK-OV-3; 42.8 µM (inactive) with HCT-116; 26.5 µM (inactive) in the test on SF-295; 70.1 µM (inactive) with NCI/ADR-RES; 2.37 µM (inactive) with NCI-H522. In addition, in the test on SK-MEL-5, the GI50 is 42.6 µM (inactive).

On to `O=C(c1ccccc1)N1CCC(CC2(c3cc4ccccc4[nH]3)OCCO2)CC1`, for which the GI50 was 58.1 µM (inactive) in the test on HOP-62; 47.3 µM (inactive) in the test with OVCAR-4; 19.5 µM (inactive) with SW-620; 64 µM (inactive) in the test on OVCAR-5; 26.5 µM (inactive) in the test with HT-29; 29.6 µM (inactive) in the test with CCRF-CEM. The GI50 is 19.4 µM (inactive) with MCF7; 19.5 µM (inactive) in the test on MOLT-4; 68.5 µM (inactive) in the test with A549; 67.9 µM (inactive) in the test with SNB-19; 27.5 µM (inactive) in the test with UACC-257; 18.5 µM (inactive) in the test on M14. Moreover, the GI50 in the test with T47D is 41.4 µM (inactive); in the test with SK-OV-3 it was 56.8 µM (inactive); with HCT-116, 29.3 µM (inactive); with SF-295 it was 39.4 µM (inactive); in the test with NCI/ADR-RES it was > 100 µM (inactive); with SK-MEL-5, 19.7 µM (inactive). Besides, in the test with RXF 393, the GI50 is 76 µM (inactive).

For the compound `OC[C@@H](O)[C@H](O)[C@H](O)[C@@H](O)C1SCCCS1`, the GI50 in the test with HOP-62, in the test with OVCAR-4, with SW-620, with OVCAR-5, with HT-29 and with MCF7 was > 100 µM (inactive) in each case. The GI50 in the test with MOLT-4, in the test with A549, with SNB-19, in the test on UACC-257, with M14 and with T47D was > 100 µM (inactive) throughout. Further, the GI50 in the test with SK-OV-3, in the test on HCT-116, in the test with SF-295, in the test with NCI/ADR-RES, with SK-MEL-5 and in the test with RXF 393 was > 100 µM (inactive) in each case.

For the compound `SCc1ccc(CS)s1`, the GI50 with HOP-62, in the test with OVCAR-4, in the test with SW-620, in the test on OVCAR-5, with HT-29 and with CCRF-CEM was > 100 µM (inactive) throughout. Moreover, the GI50 in the test on MCF7, in the test with MOLT-4, with A549, with SNB-19, in the test with UACC-257 and in the test with M14 was > 100 µM (inactive) each time. Besides, the GI50 in the test on T47D, in the test with SK-OV-3, in the test with HCT-116, with SF-295, in the test on NCI/ADR-RES and with NCI-H522 was > 100 µM (inactive) throughout. Further, in the test on SK-MEL-5, the GI50 was > 100 µM (inactive).

Take `N=c1c2c(-c3ccccc3)c[nH]c2ncn1N`: the GI50 with HOP-62, in the test with OVCAR-4, in the test with SW-620, in the test with OVCAR-5, in the test with HT-29 and with CCRF-CEM was > 100 µM (inactive) throughout. The GI50 in the test with MCF7, in the test with MOLT-4, in the test with A549, in the test on SNB-19, in the test with UACC-257 and in the test on M14 was > 100 µM (inactive) throughout. Also, the GI50 in the test with T47D, in the test on SK-OV-3, with HCT-116, in the test with SF-295, in the test with NCI/ADR-RES and with NCI-H522 was > 100 µM (inactive) throughout. Moreover, the GI50 in the test with SK-MEL-5 is > 100 µM (inactive).

Consider `CCOC(=O)c1ccc(NCC#CCN2CCOCC2)cc1`, for which the GI50 in the test with HOP-62 was > 100 µM (inactive); in the test with OVCAR-4, > 100 µM (inactive); in the test with SW-620 it was > 100 µM (inactive); in the test on OVCAR-5 it was 19.9 µM (inactive); in the test with HT-29, 69.2 µM (inactive); in the test on CCRF-CEM, 60.1 µM (inactive). Moreover, the GI50 was 66.4 µM (inactive) in the test with MCF7; > 100 µM (inactive) with MOLT-4; 83.9 µM (inactive) with A549; > 100 µM (inactive) in the test with SNB-19; 29.7 µM (inactive) with M14; > 100 µM (inactive) in the test with T47D. Also, the GI50 in the test with SK-OV-3 is > 100 µM (inactive); in the test with HCT-116, 53 µM (inactive); in the test with NCI/ADR-RES, > 100 µM (inactive); in the test with SK-MEL-5, 26.9 µM (inactive); with RXF 393, > 100 µM (inactive).

With `CC1(C)CC[C@]2(C(=O)O)CC[C@]3(C)C(=CC[C@@H]4[C@@]5(C)C[C@H](O)[C@H](O)[C@@](C)(CO)C5=CC[C@]43C)[C@@H]2C1`, the GI50 is > 100 µM (inactive) with HOP-62; 31.4 µM (inactive) in the test on OVCAR-4; > 100 µM (inactive) with SW-620; > 100 µM (inactive) with OVCAR-5; 55.5 µM (inactive) in the test with HT-29; > 100 µM (inactive) in the test with CCRF-CEM. Besides, the GI50 in the test on MCF7 is 46.7 µM (inactive); in the test on MOLT-4 it was 35.6 µM (inactive); with A549, 28.8 µM (inactive); in the test on SNB-19 it was 42.7 µM (inactive); in the test with UACC-257 it was > 100 µM (inactive); in the test with M14, > 100 µM (inactive). In addition, the GI50 is 35.8 µM (inactive) in the test with T47D; > 100 µM (inactive) in the test on SK-OV-3; 32.5 µM (inactive) with HCT-116; 25.8 µM (inactive) in the test on SF-295; 41.1 µM (inactive) in the test on NCI/ADR-RES; 20.2 µM (inactive) in the test on NCI-H522. Moreover, in the test on SK-MEL-5, the GI50 is > 100 µM (inactive).

Consider `COc1ccc(S(=O)(=O)NC(CCC(=O)NC(N)=O)C(=O)NC(N)=O)cc1` (stereo not given), for which the GI50 with HOP-62, with OVCAR-4, with SW-620, in the test with OVCAR-5, in the test on HT-29 and with CCRF-CEM was > 100 µM (inactive) each time. In addition, the GI50 in the test on MCF7, in the test on MOLT-4, with A549, in the test on SNB-19, with UACC-257 and in the test with M14 was > 100 µM (inactive) in each case. For the same compound, the GI50 in the test on T47D, in the test on SK-OV-3, with HCT-116, in the test on SF-295, in the test with NCI/ADR-RES and in the test on NCI-H522 was > 100 µM (inactive) throughout. Besides, in the test on SK-MEL-5, the GI50 is > 100 µM (inactive).

Consider `Oc1ccc(/C=C/c2ccc3cccc(O)c3n2)cc1O`, for which the GI50 was 13.1 µM (inactive) with HOP-62; 7.5 µM (inactive) in the test on OVCAR-4; 4.24 µM (inactive) with SW-620; 16.1 µM (inactive) in the test on OVCAR-5; 14.7 µM (inactive) with HT-29; 0.759 µM (active) in the test on CCRF-CEM. Moreover, the GI50 in the test on MCF7 was 2.42 µM (inactive); with MOLT-4 it was 0.973 µM (active); in the test with A549 it was 4.23 µM (inactive); in the test with SNB-19, 5.02 µM (inactive); in the test with UACC-257, 10.5 µM (inactive); in the test with M14 it was 2.69 µM (inactive). Besides, the GI50 with T47D was 1.75 µM (inactive); with SK-OV-3, 23.7 µM (inactive); with HCT-116 it was 3.77 µM (inactive); with SF-295, 8.17 µM (inactive); in the test on NCI/ADR-RES it was 0.493 µM (active); in the test with SK-MEL-5, 3.02 µM (inactive). Also, the GI50 in the test on RXF 393 is 3.24 µM (inactive).

Take `Cc1ccc(-c2cc(C(F)(F)F)nn2-c2ccc(S(N)(=O)=O)cc2)cc1` [CELECOXIB]: the GI50 was 67.9 µM (inactive) in the test on HOP-62; 12.4 µM (inactive) in the test with OVCAR-4; 16.9 µM (inactive) in the test with SW-620; 19.7 µM (inactive) with OVCAR-5; 16.5 µM (inactive) with HT-29; 14 µM (inactive) with CCRF-CEM. Also, the GI50 in the test on MCF7 was 17.5 µM (inactive); in the test on MOLT-4, 17.3 µM (inactive); in the test on A549, 14.4 µM (inactive); in the test on SNB-19, 18 µM (inactive); in the test with UACC-257, 19.7 µM (inactive); with M14, 67.9 µM (inactive). The GI50 with T47D is 16.8 µM (inactive); in the test on SK-OV-3, 18.3 µM (inactive); in the test on HCT-116 it was 55 µM (inactive); in the test on SF-295, 16.6 µM (inactive); in the test on NCI/ADR-RES it was 16.2 µM (inactive); in the test on SK-MEL-5 it was 14.8 µM (inactive). Further, in the test on RXF 393, the GI50 is 17.1 µM (inactive).
